Experimental data as given in patent US20110281854A1, “MORPHOLINE COMPOUNDS” (Pfizer Inc, priority 2010, published 2011).

Target: T1, MR (Homo sapiens, UniProt P08235)
T1 construct: expressed in transfected cells; host or cells: Huh7 human liver cells (ATCC), transient transfection with FuGENE 6
T1 sequence (P08235 726-964 limits assumed): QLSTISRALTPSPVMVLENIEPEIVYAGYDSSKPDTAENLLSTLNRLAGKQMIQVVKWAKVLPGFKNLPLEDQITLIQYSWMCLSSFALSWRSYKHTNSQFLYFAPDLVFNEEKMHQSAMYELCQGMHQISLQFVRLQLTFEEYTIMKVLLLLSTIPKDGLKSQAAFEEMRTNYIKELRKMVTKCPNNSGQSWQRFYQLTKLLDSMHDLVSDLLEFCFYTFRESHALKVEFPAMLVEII
Assay: Cell-based reporter assay (Gal4-MR-LBD luciferase, antagonist mode)
Settings: not given
Experimental: To measure the ability of test compound in the present invention to modulate the activity of MR (agonize, antagonize, partially agonize, partially antagonize), bioassays were performed that measured the modulation of reporter gene expression. Cells were transiently transfected with a luciferase reporter gene under the control of a Gal4 response element (Gal4-RE-luc) and a plasmid containing the Gal4 DNA binding domain fused to the MR ligand binding domain (Gal4-MR-LBD). Agonists can bind to and activate the MR-LBD, which activates the expression of the luciferase reporter gene through interaction with the Gal4 response element. […] Antagonists can compete for binding to the NHR-LBD and decrease the agonist-induced transcriptional activity of the reporter gene. Therefore, measurement of luciferase activity allowed quantitative determinations of the reporter transcription in the presence of either agonists or competitive antagonists.
The final concentration of DMSO in the test plate was 0.5%. Following an overnight incubation with compound, 25 μL of Steady-Glow™ lysis buffer with luciferase substrate (Promega Corporation, E2550) was added directly to the cells. After a 30-minute incubation to completely lyse the cells, the microplates were counted in an Envision™ Multilabel Reader (Perkin Elmer) in single photon counting mode.

| IC50 [nM] | Compound |
| --- | --- |
| 97.9 | N#CC[C@@H]1CN(c2ccc3c(n2)NC(=O)CO3)[C@H](c2ccccc2)CO1 [Example 40, 2-((2R,5R)-4-(3-oxo-3,4-dihydro-2H-pyrido[3,2-b][1,4]oxazin-6-yl)-5-phenylmorpholin-2-yl)acetonitrile] |
| 5230 | O=C1COc2ccc(N3CCOC[C@@H]3c3ccccc3)cc2N1 [Example 41, (S)-6-(3-phenylmorpholino)-2H-benzo[b][1,4]oxazin-3(4H)-one] |
| 527 | C[C@@H]1CN(c2ncc3c(n2)NC(=O)CO3)[C@H](c2ccccc2)[C@H](C)O1 [Example 42, 2-((2S,3R,6R)-2,6-dimethyl-3-phenylmorpholino)-6H-pyrimido[5,4-b][1,4]oxazin-7(8H)-one] |
| 395 | C[C@@H]1CN(c2cc3c(cn2)OCC(=O)N3)[C@H](c2ccccc2)[C@H](C)O1 [Example 43, 7-((2S,3R,6R)-2,6-dimethyl-3-phenylmorpholino)-1H-pyrido[3,4-b][1,4]oxazin-2(3H)-one] |
| 1230 | O=C1COc2cnc(N3C[C@@H](C4CC4)OC[C@H]3c3ccccc3)nc2N1 [Example 44, 2-((2R,5R)-2-cyclopropyl-5-phenylmorpholino)-6H-pyrimido[5,4-b][1,4]oxazin-7(8H)-one] |
| 349 | C[C@@H]1CN(c2ccc3oc(=O)[nH]c3c2)[C@H](c2ccccc2)CO1 [Example 45, 5-((2R,5R)-2-methyl-5-phenylmorpholino)benzo[d]oxazol-2(3H)-one] |
| 252 | C[C@@H]1CN(c2cc3c(cn2)OCC(=O)N3)[C@H](c2ccccc2)CO1 [Example 46, 7-((2R,5R)-2-methyl-5-phenylmorpholino)-1H-pyrido[3,4-b][1,4]oxazin-2(3H)-one] |
| 1630 | C[C@@H]1CN(c2ccc3c(c2)NS(=O)(=O)CO3)[C@H](c2ccccc2)CO1 [Example 47, 7-[(2R,5R)-2-methyl-5-phenylmorpholin-4-yl]-1H-4,2,1-benzoxathiazine 2,2-dioxide] |
| 278 | C[C@@H]1CN(c2ccc3c(n2)NC(=O)CO3)[C@H](c2ccc(F)cc2F)CO1 [Example 52, 6-((2R,5R)-5-(2,4-difluorophenyl)-2-methylmorpholino)-2H-pyrido[3,2-b][1,4]oxazin-3(4H)-one] |
| 7450 | CC1(C)OCCN(c2ccc3c(n2)NC(=O)CO3)C1c1ccccc1 (stereo not drawn) [Example 53, 6-(2,2-dimethyl-3-phenylmorpholino)-2H-pyrido[3,2-b][1,4]oxazin-3(4H)-one] |
| 2800 | C[C@@H]1CN(c2ccc3c(n2)NC(=O)CO3)C[C@@H](C)O1 [Example 54, 6-((2R,6R)-2,6-dimethylmorpholino)-2H-pyrido[3,2-b][1,4]oxazin-3(4H)-one] |
| 485 | C[C@@H]1CN(c2ncc3c(n2)NC(=O)CO3)[C@H](c2ccc(F)cc2)CO1 [Example 55, 2-((2R,5R)-5-(4-fluorophenyl)-2-methylmorpholino)-6H-pyrimido[5,4-b][1,4]oxazin-7(8H)-one] |
| 4690 | CC[C@@H]1CN(c2ccc3c(n2)NC(=O)CO3)C[C@H](CC)O1 [Example 57, 6-(cis-2,6-diethylmorpholino)-2H-pyrido[3,2-b][1,4]oxazin-3(4H)-one] |
| 2990 | C[C@@H]1CN(c2cnc3c(c2)NC(=O)CO3)[C@H](c2ccccc2)CO1 [Example 58, 7-((2R,5R)-2-methyl-5-phenylmorpholino)-1H-pyrido[2,3-b][1,4]oxazin-2(3H)-one] |
| 9560 | C[C@@H]1CN(c2nc3c(cc2C#N)OCC(=O)N3)[C@H](c2ccccc2)CO1 [Example 60, 6-((2R,5R)-2-methyl-5-phenylmorpholino)-3-oxo-3,4-dihydro-2H-pyrido[3,2-b][1,4]oxazine-7-carbonitrile] |
| 646 | C[C@@H]1CN(c2cc3c(cn2)OCC(=O)N3)[C@H](c2ccc(F)cc2)CO1 [Example 61, 7-((2R,5R)-5-(4-fluorophenyl)-2-methylmorpholino)-1H-pyrido[3,4-b][1,4]oxazin-2(3H)-one] |
| 4270 | Cc1c(NS(C)(=O)=O)cccc1N1C[C@@H](C)OC[C@H]1c1ccccc1 [Example 63, N-(2-methyl-3-((2R,5R)-2-methyl-5-phenylmorpholino)phenyl)methanesulfonamide] |
| 2280 | Cc1nc(N2C[C@@H](C)OC[C@H]2c2ccccc2)nc2c1OCC(=O)N2 [Example 68, 4-methyl-2-((2R,5R)-2-methyl-5-phenylmorpholino)-6H-pyrimido[5,4-b][1,4]oxazin-7(8H)-one] |
| 204 | C[C@@H]1CN(c2ccc3c(n2)NC(=O)CO3)[C@H](c2ccccc2)[C@H](C)O1 [Example 69, 6-((2S,3R,6R)-2,6-dimethyl-3-phenylmorpholino)-2H-pyrido[3,2-b][1,4]oxazin-3(4H)-one] |
| 628 | O=C1COc2ccc(N3CC4(COC4)OC[C@H]3c3ccccc3)nc2N1 [Example 70, (R)-6-(7-phenyl-2,5-dioxa-8-azaspiro[3.5]nonan-8-yl)-2H-pyrido[3,2-b][1,4]oxazin-3(4H)-one] |
| 1930 | C[C@@H]1CN(c2ccc3c(n2)NC(=O)CO3)[C@H](C)CO1 [Example 71, 6-((2R,5R)-2,5-dimethylmorpholino)-2H-pyrido[3,2-b][1,4]oxazin-3(4H)-one] |
| 8750 | O=C1COc2ccc(N3CCOC4(CCCc5ccccc54)C3)cc2N1 (stereo not drawn) [Example 72, 6-(3′,4′-dihydro-2′H-spiro[morpholine-2,1′-naphthalene]-4-yl)-2H-benzo[b][1,4]oxazin-3(4H)-one] |
| 6340 | O=C1COc2ccc(N3CCOC4(CCOc5ccccc54)C3)cc2N1 (stereo not drawn) [Example 73, 6-(spiro[chroman-4,2′-morpholine]-4′-yl)-2H-benzo[b][1,4]oxazin-3(4H)-one] |
| 3420 | Cc1ccc(C2(C)CN(c3ccc4c(c3)NC(=O)CO4)CCO2)cc1 (stereo not drawn) [Example 74, 6-(2-methyl-2-p-tolylmorpholino)-2H-benzo[b][1,4]oxazin-3(4H)-one] |
| 3080 | O=C1COc2ccc(N3CCOC(c4ccccc4)C3c3ccccc3)cc2N1 (stereo not drawn) [Example 75, 6-(2,3-diphenylmorpholino)-2H-benzo[b][1,4]oxazin-3(4H)-one] |

| Compound | IC50 [nM] |
| --- | --- |
| C[C@@H]1CN(c2ccc3ccc(=O)[nH]c3c2)[C@H](c2ccccc2)CO1 [Example 59, 7-((2R,5R)-2-methyl-5-phenylmorpholino)quinolin-2(1H)-one] | 703 |

Same assay, conditions: antagonist mode; decrease of EC80 aldosterone signal by 50%; Huh7 cells transfected with Gal4-MR-LBD and Gal4-RE-luc

| IC50 [nM] | Compound |
| --- | --- |
| 5330 | (±)-2-(cis-5-(2-methoxyphenyl)-2-methylmorpholino)-6H-pyrimido[5,4-b][1,4]oxazin-7(8H)-one [Example 56] |
